# Experimental data as given in patent publication US20230058412A1, “Carbohydrate-Modified Particles and Particulate Formulations for Modulating an Immune Response” (NORTHWESTERN UNIVERSITY, priority 2015, published 2023).
# What was measured:
# RAW 264.7 macrophage = settings: cited from earlier work
# RAW264.7 cells = assay: High-throughput screen of cytokine production by LPS-stimulated RAW264.7 macrophages; type: cell-based
# From the text: Since macrophages are one immune cell thought to be important in immune responses, including tolerance through their production of a key immune mediator called Interleukin-10 (IL-10), we developed an in vitro approach to screening the effects of EDC-cells versus PLGA nanoparticles for their effects on IL-10 production.
# We examined the proinflammatory response (IL-6) or anti-inflammatory response (IL-10), as outlined in FIG. 2.
# Using the strategy in FIG. 2, we calculated the greatest fold change for cytokine production over a therapeutically relevant dose curve of 0.1, 1, 10, and 100 μM.
# Using activated RAW macrophages we developed a high throughput screening method to identify tolerogenic signals.
# In support of our overarching concept that ECDI-fixed NPs are lacking signals for induction of tolerogenic signals, we have examined the ability to modulate cytokine responses in a macrophage cell line (RAW264.7).
# CD209 = molecular target: T1, CD209 (Homo sapiens, UniProt Q9NNX6); settings: cited from earlier work
# T1 sequence (Q9NNX6 1-404): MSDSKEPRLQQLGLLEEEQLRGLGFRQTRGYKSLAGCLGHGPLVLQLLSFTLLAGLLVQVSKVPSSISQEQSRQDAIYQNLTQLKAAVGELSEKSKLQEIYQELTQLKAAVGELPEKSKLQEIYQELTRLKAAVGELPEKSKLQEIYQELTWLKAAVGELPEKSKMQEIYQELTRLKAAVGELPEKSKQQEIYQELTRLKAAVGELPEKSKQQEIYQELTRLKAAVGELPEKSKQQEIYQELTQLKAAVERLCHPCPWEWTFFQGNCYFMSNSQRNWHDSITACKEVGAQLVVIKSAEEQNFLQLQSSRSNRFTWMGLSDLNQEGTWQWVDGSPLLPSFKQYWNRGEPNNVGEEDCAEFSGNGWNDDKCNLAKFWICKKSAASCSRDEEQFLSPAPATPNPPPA
# allograft = settings: in vivo; cited from earlier work
# Mer = molecular target: T2, Mer (Homo sapiens, UniProt Q12866); settings: exogenous ligand; cited from earlier work
# T2 sequence (Q12866 21-999): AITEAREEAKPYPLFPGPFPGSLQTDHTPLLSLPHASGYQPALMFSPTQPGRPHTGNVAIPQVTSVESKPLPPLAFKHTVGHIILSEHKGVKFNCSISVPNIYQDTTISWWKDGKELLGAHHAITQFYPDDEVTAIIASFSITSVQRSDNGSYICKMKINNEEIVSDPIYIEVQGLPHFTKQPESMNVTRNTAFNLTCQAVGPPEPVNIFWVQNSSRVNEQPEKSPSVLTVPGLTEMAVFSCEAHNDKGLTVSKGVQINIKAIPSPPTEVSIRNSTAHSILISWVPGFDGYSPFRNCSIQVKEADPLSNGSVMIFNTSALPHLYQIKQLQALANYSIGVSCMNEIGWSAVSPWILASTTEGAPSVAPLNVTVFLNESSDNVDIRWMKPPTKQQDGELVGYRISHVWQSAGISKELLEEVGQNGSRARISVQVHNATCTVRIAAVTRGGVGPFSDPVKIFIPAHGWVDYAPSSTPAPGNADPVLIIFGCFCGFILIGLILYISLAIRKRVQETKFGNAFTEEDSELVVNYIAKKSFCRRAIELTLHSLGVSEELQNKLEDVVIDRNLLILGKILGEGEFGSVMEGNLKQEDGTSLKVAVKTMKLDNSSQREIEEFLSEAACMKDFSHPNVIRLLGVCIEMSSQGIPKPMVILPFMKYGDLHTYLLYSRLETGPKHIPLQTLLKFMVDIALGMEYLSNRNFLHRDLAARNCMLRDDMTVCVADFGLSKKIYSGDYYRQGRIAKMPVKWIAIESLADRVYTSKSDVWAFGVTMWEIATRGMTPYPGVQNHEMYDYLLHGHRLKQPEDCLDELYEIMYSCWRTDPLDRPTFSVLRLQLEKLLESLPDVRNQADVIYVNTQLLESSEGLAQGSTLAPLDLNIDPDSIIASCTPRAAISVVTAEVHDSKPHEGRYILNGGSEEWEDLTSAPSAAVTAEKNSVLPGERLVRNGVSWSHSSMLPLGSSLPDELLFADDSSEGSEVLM
# [1] = macrophages stimulated with LPS
compound,measurement,setting,value
CCCCCC(=O)CC(=O)/C=C/c1ccc(O)c(OC)c1 [6-dehydrogingerdione],"inflammatory response (decrease of pro-inflammatory cytokines, increase in IL-10/TGF13)",RAW 264.7 macrophage,inhibit this inflammatory response
"C[C@H](O)[C@@H](O)[C@@H](O)[C@H](O)C=O [Fucose, L-Fucose]",tolerogenic signal (increase IL-10 secretion and/or decrease IL-6 secretion versus baseline),"RAW264.7 cells; macrophages activated with LPS, with or without ECDI-SP, dose curve 0.1, 1, 10, 100 μM",exhibiting a tolerogenic signal
"CC(=O)N[C@H]1[C@H](O[C@H]2[C@@H](O)[C@@H](CO)O[C@@H](O[C@H]3[C@H](O)[C@@H](O)C(O)O[C@@H]3CO)[C@@H]2O)O[C@H](CO)[C@@H](O[C@@H]2O[C@H](CO)[C@H](O)[C@H](O)[C@H]2O)[C@@H]1O[C@@H]1O[C@@H](C)[C@@H](O)[C@@H](O)[C@@H]1O (some centres unmarked) [LNFPIII, Lacto-N-fuconentaose III]",binding and signalling through CD209,CD209,binds and signals through CD209
same,allograft survival,allograft,prolong allograft survival
CC(=O)N[C@H]1C(O)O[C@H](CO)[C@@H](O[C@@H]2O[C@H](CO)[C@H](O)[C@H](O)[C@H]2O)[C@@H]1O[C@@H]1O[C@@H](C)[C@@H](O)[C@@H](O)[C@@H]1O (some centres unmarked) [Lewis^x antigen],IL-6 production,RAW264.7 cells; [1],suppression of IL-6 production
same,IL-10 production,RAW264.7 cells; [1],enhancement of IL-10
Nc1ncnc2c1ncn2[C@@H]1O[C@H](CO)[C@@H](O)[C@H]1O [adenosine],"inflammatory response (decrease of pro-inflammatory cytokines, increase in IL-10/TGF13)",RAW 264.7 macrophage,inhibit this inflammatory response
C[C@H]1CC[C@@H]2N(C1)C[C@H]1[C@@H]3C[C@H]4[C@@H](C[C@H](O)[C@H]5C[C@@H](O)CC[C@@]54C)[C@@H]3CC[C@@H]1[C@]2(C)O [peimine],"inflammatory response (decrease of pro-inflammatory cytokines, increase in IL-10/TGF13)",RAW 264.7 macrophage,inhibit this inflammatory response
C[C@H]1O[C@@H](O[C@H]2CC[C@@]3(C)[C@@H](CC[C@]4(C)[C@@H]3C=C[C@]35OC[C@@]6(CCC(C)(C)C[C@H]63)[C@@H](O)C[C@]54C)[C@]2(C)CO)[C@H](O)[C@@H](O[C@@H]2O[C@H](CO)[C@@H](O)[C@H](O)[C@H]2O)[C@H]1O [saikosaponin A],"inflammatory response (decrease of pro-inflammatory cytokines, increase in IL-10/TGF13)",RAW 264.7 macrophage,inhibit this inflammatory response
"GAS6: Growth Arrest-Specific 6, cognate ligand for TAM RTKs",tyrosine autophosphorylation / signalling of Mer,Mer,stimulate tyrosine autophosphorylation of both Mer and Ax1
Protein S: cognate ligand for TAM RTKs,tyrosine autophosphorylation / signalling of Mer,Mer,only capable of signaling through Mer
